This note sets out measurements from patent US5461049A, “Amide tetrazole ACAT inhibitors” (Warner-Lambert Company, priority 1994, dated 1995).

Test [1] addresses T1, acyl-CoA: cholesterol acyltransferase (ACAT) (Rattus norvegicus, UniProt Q7TQM4).
T1 construct: tissue preparation containing rat liver microsomes; from tissue; host or cells: rat liver microsomes
T1 sequence (Q7TQM4 1-524): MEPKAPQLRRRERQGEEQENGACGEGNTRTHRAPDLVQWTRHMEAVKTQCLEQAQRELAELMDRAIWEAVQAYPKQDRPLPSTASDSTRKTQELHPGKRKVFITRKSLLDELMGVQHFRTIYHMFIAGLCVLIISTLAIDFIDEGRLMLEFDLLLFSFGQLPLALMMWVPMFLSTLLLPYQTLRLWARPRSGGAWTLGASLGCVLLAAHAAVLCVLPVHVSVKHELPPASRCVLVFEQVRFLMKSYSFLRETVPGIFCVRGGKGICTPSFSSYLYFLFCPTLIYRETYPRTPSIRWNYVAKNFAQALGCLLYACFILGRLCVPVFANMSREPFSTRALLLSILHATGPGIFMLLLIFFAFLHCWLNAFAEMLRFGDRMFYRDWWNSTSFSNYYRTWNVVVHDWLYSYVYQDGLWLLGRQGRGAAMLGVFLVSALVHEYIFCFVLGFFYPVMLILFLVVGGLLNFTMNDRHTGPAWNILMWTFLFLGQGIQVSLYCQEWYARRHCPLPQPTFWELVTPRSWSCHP
The experiment in a line: ACAT inhibition in vitro (LAI): radiolabeled cholesterol oleate formed from radiolabeled oleic acid in rat liver microsomes. In kind it is biochemical. The conditions noted are these: concentration required to inhibit the activity of the enzyme by 50%. As to the method: The ability of representative compounds of the present invention to inhibit ACAT was measured using an in vitro test more fully described in F. J. Field and R. G. Salone, Biochemica et Biophysica Acta, 712:557-570 (1982). The test assesses the ability of a test compound to inhibit the acylation of cholesterol by oleic acid by measuring the amount of radiolabeled cholesterol oleate formed from radiolabeled oleic acid in a tissue preparation containing rat liver microsomes (designated LAI).
In general terms: Liver microsomes are a subcellular fraction often used to study metabolism.

A short description of test [2]: APCC in vivo screen: change in total cholesterol in rats on high fat, high cholesterol diet. On the set-up: species or system male Sprague-Dawley rats. The conditions noted are these: Rattus norvegicus, po, 16 h; 30 mg/kg by gavage, single dose at 4 PM, sacrificed at 8 AM; 5.5% peanut oil, 1.5% cholesterol, 0.5% cholic acid diet; vs control animals given vehicle and diet only; read-out: APCC (% change in TC). The source says: In one in vivo screen designated APCC, male Sprague-Dawley rats (200-225 g body weight) were randomly divided into treatment groups and dosed at 4 PM with either vehicle (CMC/Tween) or suspensions of invention compounds in vehicle. The normal chow diet was then replaced with a high fat, high cholesterol diet (5.5% peanut oil, 1.5% cholesterol, and 0.5% cholic acid). The rats consumed this diet ad libitum during the night and were sacrificed at 8 AM to obtain blood samples for cholesterol analysis using standard procedures. Statistical differences between mean cholesterol values for the same vehicle were determined using analysis of variance followed by Fisher's least significant test. The results of this trial for representative compounds of the present invention also appear in Table I as the percent change in total cholesterol (%TC) from control animals given vehicle and diet only. All compounds in the APCC test reported in Table 1 were administered by garage at 30 mg/kg.

As for `CCCCCCCCCCCCn1nnc(C(N)C(=O)Nc2c(C(C)C)cccc2C(C)C)n1` (racemic) [Example 10, (±)-2-Amino-N-(2,6-diisopropylphenyl)-2-(2-dodecyl-2H-tetrazol-5-yl)-acetamide], 94 nM corresponded to half-maximal inhibition in test [1] (IC50). The change in vivo at 30 mg/kg in test [2] was -51%.

As for `CCCCCCCCCCCCn1nnc(C(C(=O)Nc2c(OC)cc(OC)cc2OC)N2CCCC2)n1` (racemic) [Example 17, (±)-N-(2,4,6-trimethoxyphenyl) -2-(2-dodecyl-2H-tetrazol-5-yl)-2-pyrrolidin-1-yl-acetamide], the IC50 in test [1] amounted to 40 nM. Besides, in test [2], the change in vivo at 30 mg/kg is -67%.

As for `CCCCCCCCCCCCn1nnc(C(C(=O)Nc2c(C(C)C)cc(C(C)C)cc2C(C)C)N2CCCC2)n1` (racemic) [Example 18, (±)-N-2,4,6-triisopropylphenyl-2-(2-dodecyl-2H-tetrazol-5-yl)-2-pyrrolidin-1-yl-acetamide], 222 nM corresponded to half-maximal inhibition in test [1] (IC50). In test [2], the change in vivo at 30 mg/kg is -20%.

In the case of `CCCCCCCCCCCCn1nnc(C(NC(C)=O)C(=O)Nc2c(C(C)C)cccc2C(C)C)n1` (racemic) [Example 32, (±)-N-(2,6-diisopropylphenyl)-2-(2-dodecyl-2H-tetrazol-5-yl)-2-acetylamino-acetamide], the IC50 in test [1] was more than 1000 nM. Further, the change in vivo at 30 mg/kg in test [2] is -9%.

The compound `CCCCCCCCCCCCn1nnc(C(=O)C(=O)Nc2c(C(C)C)cccc2C(C)C)n1` [Example 11, N-(2,6-diisopropylphenyl)-2-(2-dodecyl-2H-tetrazol-5-yl)-2-oxo-acetamide] showed an IC50 in test [1] of 135 nM. Also, the change in vivo at 30 mg/kg in test [2] is -50%.

In test [1], `CCCCCCCCCCCCn1nnc(/C(=N\OC)C(=O)Nc2c(C(C)C)cccc2C(C)C)n1` [Example 13, E-N-(2,6-Diisopropylphenyl)-2-(2-dodecyl-2H-tetrazol-5-yl)-2-methoxyimino-acetamide] gave an IC50 of 2 nM. Besides, in test [2], the change in vivo at 30 mg/kg was -43%.

Take `CCCCCCCCCCCCn1nnc(/C(=N/OC)C(=O)Nc2c(C(C)C)cccc2C(C)C)n1` [Example 14, Z-N-(2,6-diisopropylphenyl) -2-(2-dodecyl-2H-tetrazol-5-yl)-2-methoxyiminoacetamide]: the IC50 in test [1] amounted to 40 nM. The change in vivo at 30 mg/kg in test [2] was -19%.

As for `CCCCCCCCCCCCn1nnc(/C(=N\OC)C(=O)Nc2c(OC)cc(OC)cc2OC)n1` [Example 15, E-2-(2-Dodecyl-2H-tetrazol-5-yl)-2-methoxyimino -N-(2,4,6-trimethoxyphenyl)-acetamide], in test [1], the IC50 turned out to be 28 nM. For the same compound, in test [2], the change in vivo at 30 mg/kg is -70%.

Turning to `CCCCCCCCCCC(C)n1nnc(/C(=N\OC)C(=O)Nc2c(C(C)C)cccc2C(C)C)n1` (stereo not shown) [Example 16, E-N-(2,6-Diisopropylphenyl)-2-(2-(1-methylundecyl) -2H-tetrazol-5-yl)-2-methoxyimino-acetamide], the IC50 in test [1] was 3 nM. Besides, the change in vivo at 30 mg/kg in test [2] was -67%.

In test [1], `CCCCCCCCCCCCn1nnc(/C(=N/OCC)C(=O)Nc2c(C(C)C)cccc2C(C)C)n1` [Example 23, Z-N-(2,6-diisopropylphenyl) -2-(2-dodecyl-2H-tetrazol-5-yl)-2-ethoxyimino-acetamide] gave an IC50 of 2 nM. Moreover, in test [2], the change in vivo at 30 mg/kg was -74%.

`CCCCCCCCCCCCn1nnc(/C(=N\OCC)C(=O)Nc2c(C(C)C)cccc2C(C)C)n1` [Example 24, E-isomer of N-(2,6-diisopropylphenyl)-2-(2-dodecyl-2H-tetrazol-5-yl)-2-ethoxyimino-acetamide] showed an IC50 in test [1] of 49 nM. In test [2], the change in vivo at 30 mg/kg is -31%.

Regarding `CCCCCCCCCCCCn1nnc(C(=NNc2ccccc2)C(=O)Nc2c(C(C)C)cccc2C(C)C)n1` [Example 28, N-(2,6-diisopropylphenyl)-2-(2-dodecyl-2H-tetrazol-5-yl)-2-phenylhydrazono-acetamide], 150 nM corresponded to half-maximal inhibition in test [1] (IC50). Besides, in test [2], the change in vivo at 30 mg/kg is -18%.

Take `CCCCCCCCCCCCn1nnc(C(=NN(C)C)C(=O)Nc2c(C(C)C)cccc2C(C)C)n1` [Example 29, N-(2,6-diisopropylphenyl)-2-(2-dodecyl-2H-tetrazol-5-yl)-2-dimethylhydrazono-acetamide]: in test [1], it took 43 nM to reach half-maximal inhibition (IC50). Besides, the change in vivo at 30 mg/kg in test [2] is -70%.

`CCCCCCCCCCCCn1nnnc1/C(=N\OCC)C(=O)Nc1c(C(C)C)cccc1C(C)C` [Example 41, E-N-(2,6-Diisopropylphenyl)-2-(1-dodecyl-1H-tetrazol-5-yl)-2-ethoxyimino-acetamide] came in with an IC50 in test [1] of 25 nM. The change in vivo at 30 mg/kg in test [2] was -65%.

The IC50 is the concentration that gives 50% inhibition. Read a high IC50 as weaker potency in that assay.
